Key:
human IDO enzyme (IDO1) = human IDO enzyme (IDO1) (Homo sapiens (Human), UniProt P14902); experiment: IDO1 enzyme assay; type: biochemical; details: for inhibition at 0.5 µM: read-out: IDO1 (inhibition % at 500 nM)
Description: The compounds were initially prepared in DMSO at 10 mM, then diluted in MES buffer to desired concentration. […] The mixture was centrifuged for 1 minute, then pre-incubated at room temperature for 30 minutes. […] The resulting reaction mixture was incubated at 25° C. for 40 minutes. The reaction was terminated by adding 50 ul of 30% (w/v) trichloroacetic acid. The sample was further incubated for 30 min at 60° C. and centrifuged at 2000 rpm for 5 min to remove precipitated protein. The supernatant was used to mix with an equal volume of Ehrlich's reagent (2% w/v p-dimethylaminobenzaldehyde in glacial acetic acid), then mixture was incubated at room temperature for 10 minutes. OD value was read at 490 nm in a spectrophotometer.
wherein High control=no compound; Low control=no enzyme and no compound.
IC50 values were calculated by fitting the doseresponse curves with Xlfit excel add-in version 4.3.1.

human TDO enzyme = human TDO enzyme (Homo sapiens (Human), UniProt P48775); experiment: TDO enzyme assay; type: biochemical; details: for inhibition at 1 µM: read-out: TDO (inhibition % at 1000 nM)
Chain of human TDO enzyme (P48775 whole entry): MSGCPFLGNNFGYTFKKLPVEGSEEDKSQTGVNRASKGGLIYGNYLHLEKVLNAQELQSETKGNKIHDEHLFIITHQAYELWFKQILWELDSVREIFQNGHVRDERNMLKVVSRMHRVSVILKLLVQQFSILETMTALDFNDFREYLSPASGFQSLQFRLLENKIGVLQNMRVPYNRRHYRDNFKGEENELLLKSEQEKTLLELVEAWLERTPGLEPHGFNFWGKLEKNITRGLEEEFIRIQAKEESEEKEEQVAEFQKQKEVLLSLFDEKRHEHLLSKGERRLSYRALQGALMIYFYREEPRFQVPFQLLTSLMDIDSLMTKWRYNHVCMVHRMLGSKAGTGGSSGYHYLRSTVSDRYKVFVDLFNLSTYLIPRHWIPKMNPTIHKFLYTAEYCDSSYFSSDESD
Description: In vitro TDO enzymatic activity was determined in a mixture of 50 mM potassium phosphate buffer, pH 6.5; 200 nM human TDO enzyme, 300 μM L-Tryptophan, 0.2 mg/mL Catalase, 20 mM ascorbic Acid and 20 μM Methylene Blue. 100× compounds were prepared in DMSO from 1 mM, then diluted three fold, 8 doses in total. 2 μL compounds were added to 96 well plate, followed by addition of 100 μL 400 nM TDO and 0.4 mg/ml catalase in each well. The mixture was centrifuged for 1 minute, then pre-incubated at room temperature for 10 minutes. The reaction was started by the addition of 100 μL mixture of 600 μM L-Tryptophan, 40 μM methylene blue and 40 mM ascorbic acid in 50 mM potassium phosphate buffer, pH 6.5. […] Copy slope data from Synergy program, and convert slope values to inhibition values. Percent inhibition=(max−conversion)/(max−min)*100. “max” stands for high control; “min” stands for low control. Fit the data in GraphPad Prism5.0 to obtain IC50 values. Equation used is: Y=Bottom+(Top−Bottom)/(1+10^((Log IC50−X)*HillSlope).

Chain of human IDO enzyme (IDO1) (P14902 whole entry): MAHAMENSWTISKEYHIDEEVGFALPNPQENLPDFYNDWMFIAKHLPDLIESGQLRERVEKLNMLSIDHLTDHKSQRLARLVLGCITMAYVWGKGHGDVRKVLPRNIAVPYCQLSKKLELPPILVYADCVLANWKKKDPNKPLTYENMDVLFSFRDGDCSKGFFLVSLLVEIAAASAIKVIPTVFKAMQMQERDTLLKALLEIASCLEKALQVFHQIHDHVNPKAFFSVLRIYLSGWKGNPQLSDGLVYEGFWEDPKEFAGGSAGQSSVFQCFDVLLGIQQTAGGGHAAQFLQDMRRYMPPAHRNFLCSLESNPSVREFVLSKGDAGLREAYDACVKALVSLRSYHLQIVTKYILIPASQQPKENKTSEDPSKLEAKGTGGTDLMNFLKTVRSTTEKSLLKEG

Row | Compound | IC50 (human IDO enzyme (IDO1)) | IC50 (human TDO enzyme) | inhibition at 1 µM (human TDO enzyme) | inhibition at 0.5 µM (human IDO enzyme (IDO1))
1 | OC(CC1c2ccccc2-c2cncn21)C12C[C@@H]3C[C@@H](CC(O)(C3)C1)C2 (stereo partly drawn) [Compound 14f, (1s,3r,5R,7S)-3-(1-hydroxy-2-(5H-imidazo[5,1-a]isoindol-5-yl)ethyl)adamantan-1-ol] | < 100 nM | < 200 nM |  | 
2 | OC1[C@@H]2CC3C[C@H]1CC(C(O)CC1c4c(F)cccc4-c4cncn41)(C3)C2 (stereo partly drawn) [Compound 17, (1R,2s,3S,5s,7s)-5-(2-(6-fluoro-5H-imidazo[5,1-a]isoindol-5-yl)-1-hydroxyethyl)adamantan-2-ol] | < 100 nM | < 200 nM |  | 
3 | OC(CC1c2c(F)cccc2-c2cncn21)C12C[C@@H]3C[C@@H](CC(O)(C3)C1)C2 (stereo partly drawn) [Compound 15d, (1s,3r,5R,7S)-3-(2-(6-fluoro-5H-imidazo[5,1-a]isoindol-5-yl)-1-hydroxyethyl)adamantan-1-ol] | < 100 nM | < 200 nM |  | 
4 | OC(CC1c2ccccc2-c2cncn21)C1CCN(C2CC2)CC1 (stereo not shown) [Compound 3, 1-(1-cyclopropylpiperidin-4-yl)-2-(5H-imidazo[5,1-a]isoindol-5-yl)ethanol] |  |  | > 50% | 
5 | OC(C1CCCCC1)C1(C2c3ccccc3-c3cncn32)CC1 (stereo not shown) [Compound 13, (1-(5H-imidazo[5,1-a]isoindol-5-yl)cyclopropyl)(cyclohexyl) methanol] |  |  | > 50% | 
6 | O=[N+]([O-])c1cc(C(F)(F)F)ccc1N1CCC(C(O)CC2c3ccccc3-c3cncn32)CC1 (stereo not shown) [Compound 9, 2-(5H-imidazo[5,1-a]isoindol-5-yl)-1-(1-(2-nitro-4-(trifluoromethyl)phenyl)piperidin-4-yl)ethanol] | < 500 nM | < 200 nM |  | 
7 | OC(CC1c2c(F)cccc2-c2cncn21)C12C[C@@H]3C[C@@H](CC(O)(C3)C1)C2 (stereo partly drawn) [Compound 15d-4, (1s,3r,5R,7S)-3-(2-(6-fluoro-5H-imidazo[5,1-a]isoindol-5-yl)-1-hydroxyethyl)adamantan-1-ol] | > 500 nM |  |  | 
8 | OC(CC1c2ccccc2-c2cncn21)C1CCN(c2ccccc2)CC1 (stereo not shown) [Compound 1, 2-(5H-imidazo[5,1-a]isoindol-5-yl)-1-(1-phenylpiperidin-4-yl)ethanol] |  |  |  | > 50%
9 | OC(CC1c2c(F)cccc2-c2cncn21)C12CC3CC(CC(C3)C1)C2 (stereo not shown) [Compound 15e, 1-((3r,5r,7r)-adamantan-1-yl)-2-(6-fluoro-5H-imidazo[5,1-a]isoindol-5-yl)ethanol] | < 100 nM | < 500 nM |  | 
10 | OC(CC1c2ccccc2-c2cncn21)C1CCN(c2ccc(C(F)(F)F)cc2)CC1 (stereo not shown) [Compound 8, 2-(5H-imidazo[5,1-a]isoindol-5-yl)-1-(1-(4-(trifluoromethyl)phenyl)piperidin-4-yl)ethanol] |  |  | > 50% | > 50%
11 | OC(CC1c2c(F)cccc2-c2cncn21)C1C2CC3CC1CC(O)(C3)C2 [Compound 18k-1, (1s,3R,5S,7s)-4-(2-(6-fluoro-5H-imidazo[5,1-a]isoindol-5-yl)-1-hydroxyethyl)adamantan-1-ol] | < 500 nM |  |  | 
12 | OC(CC1c2c(F)cccc2-c2cncn21)C1C2CC3CC1CC(O)(C3)C2 [Compound 18k-2, (1s,3R,5S,7s)-4-(2-(6-fluoro-5H-imidazo[5,1-a]isoindol-5-yl)-1-hydroxyethyl)adamantan-1-ol] | < 100 nM |  |  | 
13 | OC(CC1c2ccccc2-c2cncn21)C12CC3CC(CC(C3)C1)C2 (stereo not shown) [Compound 10, 1-((3r,5r,7r)-adamantan-1-yl)-2-(5H-imidazo[5,1-a]isoindol-5-yl)ethanol] | < 500 nM |  | > 50% | 
14 | OC(CC1c2c(F)cccc2-c2cncn21)C12C[C@@H]3C[C@@H](CC(O)(C3)C1)C2 (stereo partly drawn) [Compound 15d-3, (1s,3r,5R,7S)-3-(2-(6-fluoro-5H-imidazo[5,1-a]isoindol-5-yl)-1-hydroxyethyl)adamantan-1-ol] | < 100 nM |  |  | 
15 | O=[N+]([O-])c1ccccc1N1CCC(C(O)CC2c3ccccc3-c3cncn32)CC1 (stereo not shown) [Compound 7, 2-(5H-imidazo[5,1-a]isoindol-5-yl)-1-(1-(2-nitrophenyl)piperidin-4-yl)ethanol] |  |  |  | > 50%
16 | OC(CC1c2c(F)cccc2-c2cncn21)C12C[C@@H]3C[C@@H](CC(O)(C3)C1)C2 (stereo partly drawn) [Compound 15d-2, (1s,3r,5R,7S)-3-(2-(6-fluoro-5H-imidazo[5,1-a]isoindol-5-yl)-1-hydroxyethyl)adamantan-1-ol] | > 500 nM |  |  | 
17 | FC(F)(CC1c2ccccc2-c2cncn21)C1CCCCC1 (stereo not shown) [Compound 6, 5-(2-cyclohexyl-2,2-difluoroethyl)-5H-imidazo[5,1-a]isoindole] |  |  | > 50% | > 50%
18 | OC(CC1c2c(F)cccc2-c2cncn21)C12C[C@@H]3C[C@@H](CC(O)(C3)C1)C2 (stereo partly drawn) [Compound 15d-1, (1s,3r,5R,7S)-3-(2-(6-fluoro-5H-imidazo[5,1-a]isoindol-5-yl)-1-hydroxyethyl)adamantan-1-ol] | > 500 nM |  |  | 
19 | OC(CC1c2c(F)cccc2-c2cncn21)C12CCC(O)(CC1)CC2 (stereo not shown) [Compound 16, 4-(2-(6-fluoro-5H-imidazo[5,1-a]isoindol-5-yl)-1-hydroxyethyl)bicyclo[2.2.2]octan-1-ol] | < 100 nM | < 200 nM |  | 

— US10358451B2, “Heterocycles useful as IDO and TDO inhibitors” (Hangzhou Innogate Pharma Co., Ltd., priority 2015, dated 2019)
